This note sets out measurements from US20130035326A1 (AMBIT BIOSCIENCES CORPORATION, priority 2009, published 2013).

For one experiment, the target named is T1, FLT3 kinase (Homo sapiens, UniProt P36888).
T1 construct: made in house; host or cells: T7 phage display or HEK-293 cells
T1 sequence (P36888 27-993): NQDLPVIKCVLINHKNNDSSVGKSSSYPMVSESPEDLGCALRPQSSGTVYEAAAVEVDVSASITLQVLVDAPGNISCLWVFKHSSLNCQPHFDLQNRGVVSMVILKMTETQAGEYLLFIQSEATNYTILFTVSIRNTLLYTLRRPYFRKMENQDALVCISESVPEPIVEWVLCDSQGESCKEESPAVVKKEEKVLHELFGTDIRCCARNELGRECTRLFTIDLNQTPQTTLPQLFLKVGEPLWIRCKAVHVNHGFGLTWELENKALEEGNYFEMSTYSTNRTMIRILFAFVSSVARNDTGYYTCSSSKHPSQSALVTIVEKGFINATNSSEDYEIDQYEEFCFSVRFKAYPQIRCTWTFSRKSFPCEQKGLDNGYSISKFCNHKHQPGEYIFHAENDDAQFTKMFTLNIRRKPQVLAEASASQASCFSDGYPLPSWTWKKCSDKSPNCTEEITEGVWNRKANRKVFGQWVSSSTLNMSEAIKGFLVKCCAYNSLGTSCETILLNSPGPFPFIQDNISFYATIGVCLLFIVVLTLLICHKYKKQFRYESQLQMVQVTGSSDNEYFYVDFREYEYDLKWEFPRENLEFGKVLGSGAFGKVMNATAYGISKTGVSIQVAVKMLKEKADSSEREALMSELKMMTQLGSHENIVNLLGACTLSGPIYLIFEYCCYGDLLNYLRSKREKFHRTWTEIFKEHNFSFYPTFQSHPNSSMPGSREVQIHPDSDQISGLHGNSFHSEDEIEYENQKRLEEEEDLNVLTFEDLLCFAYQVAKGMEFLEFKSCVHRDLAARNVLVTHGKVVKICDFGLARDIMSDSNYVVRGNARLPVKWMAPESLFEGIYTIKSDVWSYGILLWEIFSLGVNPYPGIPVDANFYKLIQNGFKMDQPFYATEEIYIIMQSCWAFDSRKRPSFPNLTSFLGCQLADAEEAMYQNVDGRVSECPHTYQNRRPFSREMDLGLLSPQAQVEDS
Put plainly: Competition binding assay, FLT3 Kd. The method, boiled down: (§1)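 In this bead-based competition format, test compound (eleven concentrations, threefold steps) was incubated with kinase and immobilized affinity ligand for 1 hour at room temperature. Kinase retained on beads was released with non-biotinylated ligand and measured by quantitative PCR to give Kd.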

The next experiment concerns the target T2, KIT kinase (Homo sapiens, UniProt P10721).
T2 construct: made in house; host or cells: T7 phage display or HEK-293 cells
Put plainly: Competition binding assay, KIT Kd. The method, boiled down: as §1

The target of another experiment is T3, CSF-1R kinase (Homo sapiens, UniProt P07333).
T3 construct: made in house; host or cells: T7 phage display or HEK-293 cells
Put plainly: Competition binding assay, CSF-1R Kd. The procedure, abridged: as §1

The next experiment deals with MV4-11 cells. Put plainly: MV4-11 cell proliferation assay (Alamar Blue). It counts as cell-based. To be noted: Homo sapiens, MV4-11, 72 h, 3 days incubation. The method, boiled down: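 Flt3-ITD MV4-11 cells were serum-starved overnight in Iscove's with 0.5% FBS, then given compound at 9 half-log concentrations (0.5% DMSO) for 3 days at 37° C. Alamar Blue reduction was read after 3 h by fluorescence (560/590 nm). IC50 is the mean of duplicates versus negative control.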

The target in experiment [1] is kinase panel containing either 359 or 386 distinct kinases. Put plainly: Selectivity score S10 from competition binding against a panel of kinases. To be noted: compounds at 10 μM; for Kinase specificty: S(10)-359 panel: panel of 359 distinct kinases; for Kinase specificty: S(10)-386 panel: panel of 386 distinct kinases. The method, boiled down: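 Compounds were tested at 10 μM in competition binding against T7 phage-fused or HEK-293-expressed DNA-tagged kinases with immobilized affinity ligands, 1 h at room temperature. Bound kinase was quantified by qPCR as percent of DMSO control; S10 is the fraction of distinct kinases (mutants excluded) with POC below 10.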

T2 sequence (P10721 26-976): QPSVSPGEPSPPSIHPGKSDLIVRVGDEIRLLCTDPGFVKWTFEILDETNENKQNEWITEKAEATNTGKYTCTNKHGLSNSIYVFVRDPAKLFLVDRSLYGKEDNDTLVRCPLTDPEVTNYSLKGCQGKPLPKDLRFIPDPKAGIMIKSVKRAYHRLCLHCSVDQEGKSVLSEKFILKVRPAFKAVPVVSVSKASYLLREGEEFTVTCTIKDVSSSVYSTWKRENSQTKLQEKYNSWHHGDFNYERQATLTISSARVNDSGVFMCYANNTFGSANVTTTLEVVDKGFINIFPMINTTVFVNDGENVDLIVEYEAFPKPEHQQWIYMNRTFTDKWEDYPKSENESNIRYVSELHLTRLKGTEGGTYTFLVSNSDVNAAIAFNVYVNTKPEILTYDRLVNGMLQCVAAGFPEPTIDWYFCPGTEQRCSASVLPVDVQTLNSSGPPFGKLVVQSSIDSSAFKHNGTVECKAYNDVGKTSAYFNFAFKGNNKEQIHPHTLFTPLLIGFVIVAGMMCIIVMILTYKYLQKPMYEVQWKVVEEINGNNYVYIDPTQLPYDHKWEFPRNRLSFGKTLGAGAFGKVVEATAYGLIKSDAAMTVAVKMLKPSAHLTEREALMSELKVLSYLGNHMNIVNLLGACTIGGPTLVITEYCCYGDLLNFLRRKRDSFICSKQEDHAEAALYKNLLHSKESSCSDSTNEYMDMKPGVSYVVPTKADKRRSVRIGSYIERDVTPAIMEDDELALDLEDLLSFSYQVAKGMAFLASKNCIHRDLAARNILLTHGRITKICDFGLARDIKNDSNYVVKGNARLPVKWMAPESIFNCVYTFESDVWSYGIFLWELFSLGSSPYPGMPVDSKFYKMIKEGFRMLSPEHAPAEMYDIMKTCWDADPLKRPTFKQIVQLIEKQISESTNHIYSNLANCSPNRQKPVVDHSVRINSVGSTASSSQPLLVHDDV
T3 sequence (P07333 20-972): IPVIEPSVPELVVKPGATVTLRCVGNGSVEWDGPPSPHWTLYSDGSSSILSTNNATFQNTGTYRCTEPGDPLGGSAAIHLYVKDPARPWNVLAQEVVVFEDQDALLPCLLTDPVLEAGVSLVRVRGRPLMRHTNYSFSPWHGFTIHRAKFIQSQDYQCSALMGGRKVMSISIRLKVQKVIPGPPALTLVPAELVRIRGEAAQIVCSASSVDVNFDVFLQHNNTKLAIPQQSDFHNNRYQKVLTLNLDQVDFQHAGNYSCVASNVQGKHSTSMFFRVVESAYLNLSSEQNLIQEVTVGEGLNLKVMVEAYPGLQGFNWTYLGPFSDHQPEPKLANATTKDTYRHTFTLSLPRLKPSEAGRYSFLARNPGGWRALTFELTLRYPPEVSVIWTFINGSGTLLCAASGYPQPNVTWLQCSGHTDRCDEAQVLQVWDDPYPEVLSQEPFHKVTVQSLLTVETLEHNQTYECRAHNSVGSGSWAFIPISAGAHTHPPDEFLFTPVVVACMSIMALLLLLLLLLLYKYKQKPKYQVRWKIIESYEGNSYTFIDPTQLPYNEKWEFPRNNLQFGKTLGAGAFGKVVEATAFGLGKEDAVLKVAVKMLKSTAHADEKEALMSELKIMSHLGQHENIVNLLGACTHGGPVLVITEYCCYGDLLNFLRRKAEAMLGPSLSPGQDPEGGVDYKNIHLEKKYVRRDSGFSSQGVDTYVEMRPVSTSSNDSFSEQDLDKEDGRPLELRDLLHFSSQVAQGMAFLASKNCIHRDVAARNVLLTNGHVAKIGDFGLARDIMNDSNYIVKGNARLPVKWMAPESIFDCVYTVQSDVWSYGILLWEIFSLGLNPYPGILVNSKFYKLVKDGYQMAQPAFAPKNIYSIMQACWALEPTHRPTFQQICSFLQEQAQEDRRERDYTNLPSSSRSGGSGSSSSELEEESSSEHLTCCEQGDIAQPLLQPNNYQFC

For the compound `CC(C)(C)c1cc(NC(=O)Nc2ccc(-c3cnc(N)c(COCCO)c3)cc2)no1` [Example 22, 1-(4-(6-amino-5-((2-hydroxyethoxy)methyl)pyridin-3-yl)phenyl)-3-(5-tert-butylisoxazol-3-yl)urea], the Kd (usually the free concentration of one partner at which half of the binding sites on the other are occupied at equilibrium, for simple one-to-one binding) is not above 1 nM on FLT3 kinase, not above 1 nM on KIT kinase and not above 10 nM on CSF-1R kinase. Besides, the IC50 (as a rule, the concentration needed to halve the response being measured) in the experiment on MV4-11 cells is not above 1 nM. The “Kinase specificty: S(10)-359 panel” value in experiment [1] is reported as “B (0.1<B≦0.2 nM)”.

As to `Cc1cc(N)nc(C)c1-c1ccc(NC(=O)Nc2cc(C(C)(C)C)on2)cc1` [Example 10, 1-(4-(6-amino-2,4-dimethylpyridin-3-yl)phenyl)-3-(5-tert-butylisoxazol-3-yl)urea], the Kd at FLT3 kinase is 1 to 10 nM; on KIT kinase, 1 to 10 nM; on CSF-1R kinase it was not above 10 nM. For the same compound, the IC50 with MV4-11 cells was 100 to 500 nM. The “Kinase specificty: S(10)-359 panel” value in experiment [1] is reported as “A (A≦0.1)”.

As for `Cc1cc(N)ncc1-c1ccc(NC(=O)Nc2cc(C(C)(C)C)on2)nc1` [Example 26, 1-(6′-amino-4′-methyl-3,3′-bipyridin-6-yl)-3-(5-tert-butylisoxazol-3-yl)urea], the Kd at FLT3 kinase is not above 1 nM; on KIT kinase it was not above 1 nM; at CSF-1R kinase, not above 10 nM. Also, the IC50 with MV4-11 cells is 100 to 500 nM. In addition, the “Kinase specificty: S(10)-359 panel” value in experiment [1] was “A (A≦0.1)”.

As to `CS(=O)(=O)O.Nc1ccc(-c2ccc(CC(=O)Nc3cc(C4(C(F)(F)F)CC4)on3)cc2)c(F)n1` [Example 137, 6-fluoro-5-(4-(2-oxo-2-(5-(1-(trifluoromethyl)cyclopropyl)isoxazol-3-ylamino)ethyl)phenyl)pyridin-2-aminium methanesulfonate], the Kd is not above 1 nM at FLT3 kinase, 1 to 10 nM on KIT kinase and 10 to 100 nM on CSF-1R kinase. In addition, the IC50 with MV4-11 cells was not above 1 nM. The “Kinase specificty: S(10)-386 panel” value in experiment [1] is given as “A (A≦0.1)”.

On to `CC(C)(C)c1cc(NC(=O)Nc2ccc(-c3cnc(N)c(CN4CCOCC4)c3)cc2)no1` [Example 13, 1-(4-(6-amino-5-(morpholinomethyl)pyridin-3-yl)phenyl)-3-(5-tert-butylisoxazol-3-yl)urea], for which the figures for the Kd on FLT3 kinase, at KIT kinase and at CSF-1R kinase were 1 to 10 nM, 1 to 10 nM and 10 to 100 nM, respectively. This compound had an IC50 with MV4-11 cells of 10 to 100 nM. Further, the “Kinase specificty: S(10)-359 panel” value in experiment [1] is recorded as “B (0.1<B≦0.2 nM)”.

Take `CC(C)(C)c1cc(NC(=O)Nc2ccc(-c3cnc(OCCN4CCOCC4)nc3)cc2)no1` [Example 47, 1-(5-tert-Butyl-isoxazol-3-yl)-3-{4-[2-(2-morpholin-4-yl-ethoxy)-pyrimidin-5-yl]-phenyl}-urea]: the results for the Kd on FLT3 kinase, at KIT kinase and at CSF-1R kinase were 1 to 10 nM, 1 to 10 nM and 10 to 100 nM, respectively. The compound further gave an IC50 in the experiment with MV4-11 cells of 10 to 100 nM. The “Kinase specificty: S(10)-359 panel” value in experiment [1] is reported as “A (A≦0.1)”.

Regarding `CC(C)Nc1ncc(-c2ccc(NC(=O)Cc3cccc(C(F)(F)F)c3)nc2)cn1` [Example 67, N-(5-(2-(isopropylamino)pyrimidin-5-yl)pyridin-2-yl)-2-(3-(trifluoromethyl)phenyl)acetamide], the dissociation constant (Kd) on FLT3 kinase is 1 to 10 nM; on KIT kinase, not above 1 nM; on CSF-1R kinase, 10 to 100 nM. The compound also displayed a half-inhibitory concentration (IC50) in the experiment with MV4-11 cells of 10 to 100 nM. For the same compound, in experiment [1], the “Kinase specificty: S(10)-359 panel” value is “A (A≦0.1)”.

Take `CC(C)(C)c1cc(NC(=O)Cc2ccc(-c3ccc(N)nc3C#N)cc2)no1` [Example 166]: the Kd at FLT3 kinase is not above 1 nM; on KIT kinase it was 1 to 10 nM; at CSF-1R kinase, 10 to 100 nM. This compound also returned an IC50 with MV4-11 cells of 10 to 100 nM. Besides, the “Kinase specificty: S(10)-386 panel” value in experiment [1] is given as “A (A≦0.1)”.

For `CN1C(C)(C)CC(=CCNc2ccc(-c3ccc(CC(=O)Nc4cc(C(C)(C)C)on4)cc3)cn2)CC1(C)C` [Example 117, N-(5-tert-butylisoxazol-3-yl)-2-(4-(6-(2-(1,2,2,6,6-pentamethylpiperidin-4-ylidene)ethylamino)pyridin-3-yl)phenyl)acetamide], the Kd at FLT3 kinase was not above 1 nM; at KIT kinase, 1 to 10 nM; at CSF-1R kinase it was not above 10 nM. Moreover, in the experiment on MV4-11 cells, the IC50 is not above 1 nM. In experiment [1], the “Kinase specificty: S(10)-386 panel” value was “B (0.1<B≦0.2 nM)”.

`CS(=O)(=O)O.Cc1nc(-c2ccc(CC(=O)Nc3cc(C(C)(C)C)on3)cc2)cnc1N` [Example 113, 5-(4-(2-(5-tert-butylisoxazol-3-ylamino)-2-oxoethyl)phenyl)-3-methylpyrazin-2-aminium methanesulfonate]: the Kd is not above 1 nM at FLT3 kinase, 1 to 10 nM on KIT kinase and not above 10 nM at CSF-1R kinase. This compound displayed an IC50 in the experiment with MV4-11 cells not above 1 nM. The “Kinase specificty: S(10)-386 panel” value in experiment [1] is “B (0.1<B≦0.2 nM)”.

Take `CC(C)(C)c1cc(NC(=O)Cc2ccc(-c3ccc(NCCS(C)(=O)=O)nc3)cc2)no1.CS(=O)(=O)O` [Example 92, 5-(4-(2-(5-tert-butylisoxazol-3-ylamino)-2-oxoethyl)phenyl)-N-(2-(methylsulfonyl)ethyl)pyridin-2-aminium methanesulfonate]: the figures for the equilibrium dissociation constant (Kd) at FLT3 kinase, at KIT kinase and at CSF-1R kinase were not above 1 nM, 1 to 10 nM and not above 10 nM, respectively. The compound also returned an IC50 in the experiment with MV4-11 cells of 1 to 10 nM. In addition, the “Kinase specificty: S(10)-386 panel” value in experiment [1] is listed as “B (0.1<B≦0.2 nM)”.

As for `O=C(Cc1cccc(C(F)(F)F)c1)Nc1ccc(-c2cnc(NC3CC3)nc2)cn1` [Example 66, N-(5-(2-(cyclopropylamino)pyrimidin-5-yl)pyridine-2-yl)-2-(3-(trifluoromethyl)phenyl)acetamide], the Kd was 1 to 10 nM on FLT3 kinase, not above 1 nM at KIT kinase and not above 10 nM on CSF-1R kinase. The IC50 with MV4-11 cells lay within 100 to 500 nM. Besides, the “Kinase specificty: S(10)-359 panel” value in experiment [1] is “A (A≦0.1)”.

Turning to `Nc1ccc(-c2ccc(CC(=O)Nc3cc(C4(C(F)F)CC4)on3)cc2)cn1` [Example 149, 2-(4-(6-aminopyridin-3-yl)phenyl)-N-(5-(1-(difluoromethyl)cyclopropyl)isoxazol-3-yl)acetamide], the results for the Kd on FLT3 kinase, on KIT kinase and on CSF-1R kinase were not above 1 nM, not above 1 nM and not above 10 nM, respectively. Besides, the IC50 with MV4-11 cells is 1 to 10 nM. Further, the “Kinase specificty: S(10)-386 panel” value in experiment [1] was “B (0.1<B≦0.2 nM)”.

As to `CC1(c2cc(NC(=O)Cc3ccc(-c4cnc(N)c(Cl)c4)cc3)no2)COC1.CS(=O)(=O)O` [Example 128, 3-chloro-5-(4-(2-((5-(3-methyloxetan-3-yl)isoxazol-3-yl)amino)-2-oxoethyl)phenyl)pyridin-2-aminium methanesulfonate], the Kd on FLT3 kinase was not above 1 nM; at KIT kinase it was 1 to 10 nM; on CSF-1R kinase it was not above 10 nM. This compound also came in with an IC50 in the experiment on MV4-11 cells of 1 to 10 nM. The “Kinase specificty: S(10)-386 panel” value in experiment [1] is given as “B (0.1<B≦0.2 nM)”.

Take `CC(C)(c1cc(NC(=O)Cc2ccc(-c3ccc(NCCN4CCOCC4)nc3)cc2)no1)C(F)(F)F.CS(=O)(=O)O` [Example 109, 4-(2-(5-(4-(2-oxo-2-(5-(1,1,1-trifluoro-2-methylpropan-2-yl)isoxazol-3-ylamino)ethyl)phenyl)pyridin-2-ylamino)ethyl)morpholin-4-ium methanesulfonate]: the Kd is not above 1 nM on FLT3 kinase, 1 to 10 nM at KIT kinase and not above 10 nM at CSF-1R kinase. The concentration for half-maximal inhibition (IC50) in the experiment on MV4-11 cells is not above 1 nM. Further, in experiment [1], the “Kinase specificty: S(10)-386 panel” value is “B (0.1<B≦0.2 nM)”.

Take `CS(=O)(=O)O.Nc1ncc(-c2ccc(CC(=O)Nc3cc(C4(C(F)(F)F)CC4)on3)cc2)cc1Cl` [Example 133, 3-chloro-5-(4-(2-oxo-2-(5-(1-(trifluoromethyl)cyclopropyl)isoxazol-3-ylamino)ethyl)phenyl)pyridin-2-aminium methanesulfonate]: the Kd is not above 1 nM at FLT3 kinase, 1 to 10 nM at KIT kinase and not above 10 nM on CSF-1R kinase. This compound also gave an IC50 with MV4-11 cells not above 1 nM. Further, the “Kinase specificty: S(10)-386 panel” value in experiment [1] was “B (0.1<B≦0.2 nM)”.
